Active and inactive are the calls of the source. The calls are words filed in the database; no cut-off is given here.
Columns and labels:
[1] = biological target: TGF-beta receptor type-2 (Homo sapiens) (UniProt P37173); settings: Compound concentration 1000.0 nM
[2] = biological target: Serine/threonine-protein kinase ICK (Homo sapiens) (UniProt Q9UPZ9); settings: Compound concentration 1000.0 nM
[3] = biological target: Phosphatidylinositol 3-kinase catalytic subunit type 3 (Homo sapiens) (UniProt Q8NEB9); settings: Compound concentration 1000.0 nM
[4] = tested on: Hepatocyte growth factor receptor (Homo sapiens), P08581 [Y1235D]; settings: Compound concentration 1000.0 nM
[5] = biological target: Mitogen-activated protein kinase 4 (Homo sapiens) (UniProt P31152); settings: Compound concentration 1000.0 nM
[6] = biological target: Leucine-rich repeat serine/threonine-protein kinase 2 (Homo sapiens) (UniProt Q5S007); settings: Compound concentration 1000.0 nM
[7] = biological target: Tyrosine-protein kinase receptor UFO (Homo sapiens) (UniProt P30530); settings: Compound concentration 1000.0 nM
[8] = biological target: Ribosomal protein S6 kinase alpha-6 (Homo sapiens) (UniProt Q9UK32); settings: Compound concentration 1000.0 nM
[9] = tested on: Mast/stem cell growth factor receptor Kit (Homo sapiens), P10721 [L576P]; settings: Compound concentration 1000.0 nM
[10] = tested on: Fibroblast growth factor receptor 3 (Homo sapiens), P22607 [G697C]; settings: Compound concentration 1000.0 nM
[11] = tested on: Epidermal growth factor receptor (Homo sapiens), P00533 [G719C]; settings: Compound concentration 1000.0 nM
[12] = tested on: Mast/stem cell growth factor receptor Kit (Homo sapiens), P10721 [V559D,T670I]; settings: Compound concentration 1000.0 nM
[13] = biological target: Ephrin type-B receptor 1 (Homo sapiens) (UniProt P54762); settings: Compound concentration 1000.0 nM
[14] = biological target: Amyloid-beta precursor protein (Homo sapiens, UniProt P05067); assay: Aβ40 inhibition assay
[15] = biological target: Dual specificity mitogen-activated protein kinase kinase 2 (Homo sapiens) (UniProt P36507); settings: Compound concentration 1000.0 nM
[16] = biological target: Serine/threonine-protein kinase 33 (Homo sapiens) (UniProt Q9BYT3); settings: Compound concentration 1000.0 nM
[17] = biological target: Cyclin-dependent kinase-like 2 (Homo sapiens) (UniProt Q92772); settings: Compound concentration 1000.0 nM
[18] = biological target: Serine/threonine-protein kinase WNK3 (Homo sapiens) (UniProt Q9BYP7); settings: Compound concentration 1000.0 nM
[19] = biological target: Serine/threonine-protein kinase 25 (Homo sapiens) (UniProt O00506); settings: Compound concentration 1000.0 nM
[20] = biological target: 5-hydroxytryptamine receptor 1B (Homo sapiens) (UniProt P28222); settings: Compound concentration 10.0 uM
[21] = biological target: Sodium-dependent noradrenaline transporter (Homo sapiens, UniProt P23975); settings: Compound concentration 10.0 uM
[22] = tested on: Mast/stem cell growth factor receptor Kit (Homo sapiens), P10721 [V559D]; settings: Compound concentration 1000.0 nM
[23] = tested on: Tyrosine-protein kinase ABL1 (Homo sapiens), P00519 [F317L]; settings: Compound concentration 1000.0 nM
[24] = biological target: Mitogen-activated protein kinase kinase kinase 13 (Homo sapiens) (UniProt O43283); settings: Compound concentration 1000.0 nM
[25] = biological target: Cyclin-dependent kinase 11B (Homo sapiens) (UniProt P21127); settings: Compound concentration 1000.0 nM
[26] = biological target: Calcium/calmodulin-dependent protein kinase type II subunit gamma (Homo sapiens) (UniProt Q13555); settings: Compound concentration 1000.0 nM
[27] = biological target: Tyrosine-protein kinase BTK (Homo sapiens) (UniProt Q06187); settings: Compound concentration 1000.0 nM
[28] = biological target: 5-hydroxytryptamine receptor 1A (Homo sapiens) (UniProt P08908); settings: Compound concentration 10.0 uM
[29] = biological target: 1-phosphatidylinositol 3-phosphate 5-kinase (Homo sapiens) (UniProt Q9Y2I7); settings: Compound concentration 1000.0 nM
[30] = biological target: Atypical kinase COQ8A, mitochondrial (Homo sapiens) (UniProt Q8NI60); settings: Compound concentration 1000.0 nM
[31] = tested on: Phosphatidylinositol 4,5-bisphosphate 3-kinase catalytic subunit alpha isoform (Homo sapiens), P42336 [H1047Y]; settings: Compound concentration 1000.0 nM
[32] = biological target: Bone morphogenetic protein receptor type-1A (Homo sapiens) (UniProt P36894); settings: Compound concentration 1000.0 nM
[33] = biological target: Fibroblast growth factor receptor 1 (Homo sapiens) (UniProt P11362); settings: Compound concentration 1000.0 nM
[34] = biological target: Casein kinase I isoform alpha-like (Homo sapiens) (UniProt Q8N752); settings: Compound concentration 1000.0 nM
[35] = biological target: Cyclin-dependent kinase-like 5 (Homo sapiens) (UniProt O76039); settings: Compound concentration 1000.0 nM
[36] = tested on: Tyrosine-protein kinase ABL1 (Homo sapiens), P00519 [T315I]; settings: Compound concentration 1000.0 nM
[37] = biological target: Tyrosine-protein kinase ZAP-70 (Homo sapiens) (UniProt P43403); settings: Compound concentration 1000.0 nM
[38] = biological target: Tyrosine-protein kinase ABL1 (Homo sapiens) (UniProt P00519); settings: Compound concentration 1000.0 nM
[39] = biological target: Serine/threonine-protein kinase/endoribonuclease IRE1 (Homo sapiens) (UniProt O75460); settings: Compound concentration 1000.0 nM
[40] = biological target: Ribosomal protein S6 kinase alpha-6 (Homo sapiens) (UniProt Q9UK32); settings: Compound concentration 1000.0 nM; remark: listed apart in the source
[41] = biological target: Activin receptor type-1-like (Homo sapiens) (UniProt P37023); settings: Compound concentration 1000.0 nM
[42] = tested on: Serine/threonine-protein kinase B-raf (Homo sapiens), P15056 [V600E]; settings: Compound concentration 1000.0 nM
[43] = biological target: Phosphorylase b kinase gamma catalytic chain, skeletal muscle/heart isoform (Homo sapiens) (UniProt Q16816); settings: Compound concentration 1000.0 nM
[44] = tested on: Epidermal growth factor receptor (Homo sapiens), P00533 [UNDEFINED MUTATION]; settings: Compound concentration 1000.0 nM
[45] = biological target: Serine/threonine-protein kinase BRSK2 (Homo sapiens) (UniProt Q8IWQ3); settings: Compound concentration 1000.0 nM

Sequence of Ribosomal protein S6 kinase alpha-6 (Homo sapiens) (Q9UK32 whole entry): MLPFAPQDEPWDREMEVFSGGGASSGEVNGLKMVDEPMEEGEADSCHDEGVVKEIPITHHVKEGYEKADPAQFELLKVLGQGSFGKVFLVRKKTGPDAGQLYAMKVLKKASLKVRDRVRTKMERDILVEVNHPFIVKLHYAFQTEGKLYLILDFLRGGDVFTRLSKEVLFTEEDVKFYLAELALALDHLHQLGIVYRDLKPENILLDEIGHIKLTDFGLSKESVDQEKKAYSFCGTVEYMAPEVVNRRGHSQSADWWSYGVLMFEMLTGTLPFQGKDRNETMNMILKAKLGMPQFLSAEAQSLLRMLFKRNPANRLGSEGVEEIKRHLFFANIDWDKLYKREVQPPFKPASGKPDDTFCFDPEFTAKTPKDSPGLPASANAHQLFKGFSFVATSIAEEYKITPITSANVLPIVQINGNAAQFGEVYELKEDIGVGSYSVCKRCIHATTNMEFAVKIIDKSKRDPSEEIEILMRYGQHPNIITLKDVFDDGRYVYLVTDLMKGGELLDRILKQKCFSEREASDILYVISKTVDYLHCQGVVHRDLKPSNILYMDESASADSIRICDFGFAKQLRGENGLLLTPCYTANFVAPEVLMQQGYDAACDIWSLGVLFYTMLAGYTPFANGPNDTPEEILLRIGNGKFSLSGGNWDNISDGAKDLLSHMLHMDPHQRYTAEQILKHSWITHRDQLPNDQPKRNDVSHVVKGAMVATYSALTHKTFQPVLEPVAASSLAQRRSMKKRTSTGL
Sequence of Serine/threonine-protein kinase ICK (Homo sapiens) (Q9UPZ9 whole entry): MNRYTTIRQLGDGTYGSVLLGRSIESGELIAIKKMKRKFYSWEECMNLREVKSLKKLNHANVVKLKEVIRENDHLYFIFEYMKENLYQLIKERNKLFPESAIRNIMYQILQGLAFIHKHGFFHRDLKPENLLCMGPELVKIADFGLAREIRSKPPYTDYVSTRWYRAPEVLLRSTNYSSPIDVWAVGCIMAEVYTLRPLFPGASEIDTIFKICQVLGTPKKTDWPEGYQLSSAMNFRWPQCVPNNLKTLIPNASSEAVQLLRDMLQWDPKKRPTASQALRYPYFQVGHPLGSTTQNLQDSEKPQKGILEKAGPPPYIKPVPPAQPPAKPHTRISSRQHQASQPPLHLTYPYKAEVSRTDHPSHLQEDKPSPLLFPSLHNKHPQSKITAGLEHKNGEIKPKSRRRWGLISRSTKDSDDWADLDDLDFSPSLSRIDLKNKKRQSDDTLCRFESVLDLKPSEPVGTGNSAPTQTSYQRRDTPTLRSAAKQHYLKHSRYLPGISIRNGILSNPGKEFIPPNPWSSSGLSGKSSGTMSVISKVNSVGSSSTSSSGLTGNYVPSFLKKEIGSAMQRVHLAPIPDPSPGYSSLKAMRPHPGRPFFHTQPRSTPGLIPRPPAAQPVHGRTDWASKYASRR
Sequence of TGF-beta receptor type-2 (Homo sapiens) (P37173 whole entry): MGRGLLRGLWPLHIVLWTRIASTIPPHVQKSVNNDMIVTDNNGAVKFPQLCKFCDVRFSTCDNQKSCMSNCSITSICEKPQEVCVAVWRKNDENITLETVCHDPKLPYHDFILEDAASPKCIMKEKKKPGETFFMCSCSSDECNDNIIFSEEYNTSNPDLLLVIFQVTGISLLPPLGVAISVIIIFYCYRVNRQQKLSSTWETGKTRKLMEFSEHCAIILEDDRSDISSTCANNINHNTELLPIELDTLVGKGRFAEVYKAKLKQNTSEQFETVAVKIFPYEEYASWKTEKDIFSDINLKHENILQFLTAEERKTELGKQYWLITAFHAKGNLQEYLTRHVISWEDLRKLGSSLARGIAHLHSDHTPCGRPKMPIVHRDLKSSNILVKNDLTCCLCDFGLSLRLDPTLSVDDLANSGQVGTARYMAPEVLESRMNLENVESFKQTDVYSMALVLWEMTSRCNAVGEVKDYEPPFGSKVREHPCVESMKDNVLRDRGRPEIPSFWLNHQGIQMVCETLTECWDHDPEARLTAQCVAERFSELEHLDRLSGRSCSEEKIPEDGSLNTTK
Sequence of 1-phosphatidylinositol 3-phosphate 5-kinase (Homo sapiens) (Q9Y2I7 whole entry): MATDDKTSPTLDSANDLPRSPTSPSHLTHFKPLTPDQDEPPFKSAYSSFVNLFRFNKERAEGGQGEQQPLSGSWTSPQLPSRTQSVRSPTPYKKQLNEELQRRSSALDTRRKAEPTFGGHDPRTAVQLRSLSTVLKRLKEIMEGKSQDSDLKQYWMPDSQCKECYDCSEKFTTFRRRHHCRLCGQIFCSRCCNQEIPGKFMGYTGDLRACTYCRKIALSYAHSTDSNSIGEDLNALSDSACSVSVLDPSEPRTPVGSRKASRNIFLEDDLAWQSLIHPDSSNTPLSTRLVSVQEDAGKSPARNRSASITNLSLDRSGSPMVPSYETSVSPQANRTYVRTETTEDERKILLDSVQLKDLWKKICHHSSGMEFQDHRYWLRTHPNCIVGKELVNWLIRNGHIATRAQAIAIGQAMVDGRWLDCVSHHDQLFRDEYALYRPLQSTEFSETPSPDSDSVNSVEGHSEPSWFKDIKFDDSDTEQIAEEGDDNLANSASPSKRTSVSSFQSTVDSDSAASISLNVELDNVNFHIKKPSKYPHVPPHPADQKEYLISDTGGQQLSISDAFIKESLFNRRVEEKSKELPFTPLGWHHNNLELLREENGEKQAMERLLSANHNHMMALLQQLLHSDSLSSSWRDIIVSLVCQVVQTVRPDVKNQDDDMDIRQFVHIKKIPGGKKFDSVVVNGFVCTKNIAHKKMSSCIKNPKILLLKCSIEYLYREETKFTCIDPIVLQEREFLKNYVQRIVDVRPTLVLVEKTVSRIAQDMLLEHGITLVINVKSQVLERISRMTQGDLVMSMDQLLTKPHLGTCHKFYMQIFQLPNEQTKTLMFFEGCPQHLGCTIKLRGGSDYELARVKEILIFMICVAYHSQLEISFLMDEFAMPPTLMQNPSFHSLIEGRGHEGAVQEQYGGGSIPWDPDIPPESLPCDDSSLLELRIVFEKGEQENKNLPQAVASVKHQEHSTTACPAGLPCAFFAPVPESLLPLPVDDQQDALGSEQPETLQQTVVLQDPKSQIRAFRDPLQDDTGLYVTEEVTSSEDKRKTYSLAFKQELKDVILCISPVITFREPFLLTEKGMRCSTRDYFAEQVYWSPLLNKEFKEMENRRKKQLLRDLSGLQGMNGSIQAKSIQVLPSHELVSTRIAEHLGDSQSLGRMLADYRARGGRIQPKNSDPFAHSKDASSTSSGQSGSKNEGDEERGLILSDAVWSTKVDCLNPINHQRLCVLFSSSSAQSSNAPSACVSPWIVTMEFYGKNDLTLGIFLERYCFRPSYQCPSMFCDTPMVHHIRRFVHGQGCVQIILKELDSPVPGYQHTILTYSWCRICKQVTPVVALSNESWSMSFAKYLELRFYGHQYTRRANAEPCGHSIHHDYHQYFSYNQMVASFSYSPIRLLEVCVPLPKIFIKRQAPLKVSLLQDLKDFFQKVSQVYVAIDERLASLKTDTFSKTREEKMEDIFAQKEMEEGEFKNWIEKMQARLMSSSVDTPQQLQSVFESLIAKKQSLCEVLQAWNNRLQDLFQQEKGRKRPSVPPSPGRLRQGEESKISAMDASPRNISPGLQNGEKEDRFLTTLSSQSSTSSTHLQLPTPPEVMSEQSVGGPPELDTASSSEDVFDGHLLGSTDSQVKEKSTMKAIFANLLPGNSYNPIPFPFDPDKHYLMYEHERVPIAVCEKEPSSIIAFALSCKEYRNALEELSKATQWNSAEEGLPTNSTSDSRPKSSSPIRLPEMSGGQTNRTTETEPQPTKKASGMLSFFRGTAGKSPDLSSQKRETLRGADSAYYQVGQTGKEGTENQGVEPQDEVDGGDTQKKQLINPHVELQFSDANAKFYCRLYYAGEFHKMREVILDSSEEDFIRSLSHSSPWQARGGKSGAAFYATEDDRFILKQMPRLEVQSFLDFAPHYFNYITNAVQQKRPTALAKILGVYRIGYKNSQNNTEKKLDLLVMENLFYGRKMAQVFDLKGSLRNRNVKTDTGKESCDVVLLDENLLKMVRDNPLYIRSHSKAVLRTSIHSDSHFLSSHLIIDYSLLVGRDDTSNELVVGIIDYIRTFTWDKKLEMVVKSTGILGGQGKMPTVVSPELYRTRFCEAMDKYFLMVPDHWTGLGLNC
Sequence of Mitogen-activated protein kinase 4 (Homo sapiens) (P31152 whole entry): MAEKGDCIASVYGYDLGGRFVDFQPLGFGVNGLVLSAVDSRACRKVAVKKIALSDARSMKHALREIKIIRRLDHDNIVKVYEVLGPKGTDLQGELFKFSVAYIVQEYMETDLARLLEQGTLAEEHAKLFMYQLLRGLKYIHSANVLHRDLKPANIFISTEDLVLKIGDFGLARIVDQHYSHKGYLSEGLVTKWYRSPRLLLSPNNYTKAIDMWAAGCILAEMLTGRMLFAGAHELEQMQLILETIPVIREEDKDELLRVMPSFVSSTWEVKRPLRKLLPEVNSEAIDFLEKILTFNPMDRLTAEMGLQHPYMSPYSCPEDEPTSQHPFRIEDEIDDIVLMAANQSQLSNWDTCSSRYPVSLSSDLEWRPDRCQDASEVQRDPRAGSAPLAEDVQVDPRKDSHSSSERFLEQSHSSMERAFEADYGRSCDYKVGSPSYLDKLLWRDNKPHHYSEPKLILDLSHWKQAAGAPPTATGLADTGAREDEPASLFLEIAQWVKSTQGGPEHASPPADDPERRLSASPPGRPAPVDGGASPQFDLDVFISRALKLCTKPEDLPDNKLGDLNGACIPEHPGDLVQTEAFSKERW
Sequence of 5-hydroxytryptamine receptor 1B (Homo sapiens) (P28222 whole entry): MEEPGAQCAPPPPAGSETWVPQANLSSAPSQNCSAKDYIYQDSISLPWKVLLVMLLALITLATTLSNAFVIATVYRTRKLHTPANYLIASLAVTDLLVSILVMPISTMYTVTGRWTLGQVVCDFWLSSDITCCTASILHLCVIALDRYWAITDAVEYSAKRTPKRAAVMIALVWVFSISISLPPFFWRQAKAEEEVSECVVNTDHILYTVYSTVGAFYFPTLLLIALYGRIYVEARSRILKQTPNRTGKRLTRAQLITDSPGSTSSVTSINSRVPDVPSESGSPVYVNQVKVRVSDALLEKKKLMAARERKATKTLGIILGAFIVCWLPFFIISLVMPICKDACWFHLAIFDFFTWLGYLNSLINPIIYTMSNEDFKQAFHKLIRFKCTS

COc1cc(-c2cn([C@H]3CCc4ccccc4N(CC(F)(F)F)C3=O)nn2)ccc1-n1ccc(C)n1
residual activity [1]: 100% | residual activity [2]: 63% | residual activity [3]: 100% | residual activity [4]: 93% | residual activity [5]: 99% | residual activity [6]: 54% | residual activity [7]: 93% | residual activity [8]: 81% | residual activity [9]: 62% | residual activity [10]: 90% | residual activity [11]: 100% | residual activity [12]: 92% | residual activity [13]: 100% | IC50 [14]: > 10 µM (not active) | residual activity [15]: 98% | residual activity [16]: 100% | residual activity [17]: 91% | residual activity [18]: 100% | residual activity [19]: 100% | inhibition [20]: 30.8% | inhibition [21]: 49.4% | residual activity [22]: 96% | residual activity [23]: 64% | residual activity [24]: 84% | residual activity [25]: 100% | residual activity [26]: 100% | residual activity [27]: 82% | inhibition [28]: 1.18% | residual activity [29]: 100% | residual activity [30]: 100% | residual activity [31]: 100% | residual activity [32]: 89% | residual activity [33]: 99% | residual activity [34]: 100% | residual activity [35]: 87% | residual activity [36]: 77% | residual activity [37]: 82% | residual activity [38]: 78% | residual activity [39]: 86% | residual activity [40]: 91% | residual activity [41]: 100% | residual activity [42]: 97% | residual activity [43]: 80% | residual activity [44]: 100% | residual activity [45]: 97%

COc1cc(-c2cn([C@H]3CCc4c(F)cccc4N(CC(F)(F)F)C3=O)nn2)ccc1-n1cnc(C)c1
residual activity [1]: 100% | residual activity [2]: 65% | residual activity [3]: 100% | residual activity [4]: 100% | residual activity [5]: 89% | residual activity [6]: 57% | residual activity [7]: 98% | residual activity [8]: 82% | residual activity [9]: 100% | residual activity [10]: 100% | residual activity [11]: 94% | residual activity [12]: 94% | residual activity [13]: 100% | IC50 [14]: 0.131 µM (active) | residual activity [15]: 100% | residual activity [16]: 100% | residual activity [17]: 67% | residual activity [18]: 100% | residual activity [19]: 100% | inhibition [20]: 35% | inhibition [21]: 87.1% | residual activity [22]: 100% | residual activity [23]: 85% | residual activity [24]: 75% | residual activity [25]: 95% | residual activity [26]: 100% | residual activity [27]: 100% | inhibition [28]: 19.4% | residual activity [29]: 100% | residual activity [30]: 100% | residual activity [31]: 100% | residual activity [32]: 100% | residual activity [33]: 100% | residual activity [34]: 100% | residual activity [35]: 91% | residual activity [36]: 85% | residual activity [37]: 100% | residual activity [38]: 94% | residual activity [39]: 100% | residual activity [40]: 100% | residual activity [41]: 100% | residual activity [42]: 100% | residual activity [43]: 78% | residual activity [44]: 96% | residual activity [45]: 100%

Reference: ChEMBL document CHEMBL4507289, “Data for DCP probe GSM1” (2021)
